Measurements as given in PMC3509269 (The Analyst, 2012).

Tested on: Calf thymus DNA
Format: biochemical
Conditions: 0.2 mM, negative control, under the assay conditions (Fig. S8)

SMILES: C1CCOC1 [THF]
- SWV peak increases (DNA damage signal): did not show SWV peak increases
